Patent US20080292619A1, “Pharmaceutical Composition Containing Meltrin Antagonist” (MOCHIDA PHARMACEUTICAL CO., LTD., priority 2004, published 2008)
In the oligonucleotide strings, read from the 5' end, every base follows the letter of its sugar. An asterisk marks phosphorothioate; unmarked linkages are phosphodiester. Other units and linkages are bracketed, terminal groups are in braces. A string of capitals states the bases alone. d = 2'-deoxy (DNA)

Test system: human meltrin α RNA
Assay: Suppression of human meltrin α expression by antisense compound in RD cell (real time PCR)
Type: cell-based
Details: 50 nM; RD cell; corrected by GAPDH
Method: First, RD cell (ATCC) was suspended in DMEM containing 10% fetal bovine serum (FBS, SIGMA), and the suspension was inoculated in 6 well culture plate at 2.5×10^5 cells/well/2 mL. After incubating overnight at 37° C. in the presence of 5% CO2, the cells were washed twice with serum-free DMEM, and Opti-MEM medium (GIBCO) was added at 800 μL/well.
Gene transfection reagent Lipofectin (Invitrogen) was diluted with Opti-MEM to 20 μg/mL, and the dilution was allowed to stand at room temperature for 30 minutes. Next, the antisense oligodeoxynucleotide synthesized as described above was heated at 90° C. for 3 minutes, and after quenching on ice, diluted with Opti-MEM to a concentration 10 times higher than the final concentration. Equal amounts of the Lipofectin in Opti-MEM and the antisense oligo DNA in Opti-MEM were mixed, and the mixture was incubated at room temperature for 15 minutes and added to 6 well plate at 200 μL/well.
The culture was incubated at 37° C. for 4 hours in the presence of 5% CO2, and the culture supernatant containing the Lipofectin was removed. The cells were washed twice with serum-free DMEM, and after adding 1 mL/well of Opti-MEM and incubating for 18 hours at 37° C. in the presence of 5% CO2, the cells were subjected to the measurement of the level of expression of meltrin α RNA.
After the washing, RNA was isolated from the cell by using RNA isolation kit (RNeasy Micro Kit, QIAGEN) according to the protocol of the kit, and RNA concentration was determined by measuring absorbance at a wavelength of 260 nm with a spectrophotometer (Nano prop, LMS Co., Ltd.) (1OD=40 μg/mL). After the quantitation, the RNA was prepared to a concentration of 0.1 μg/μL by using DEPC-treated water.
0.35 μg of the isolated RNA, and 3.5 μL of 10× TaqMan buffer, 7.7 μL of 25 mM MgCl2, 7.0 μL of 2.5 mM each dNTP Mix, 1.75 μL of 50 μM Random Hexamers, 0.7 μL of 20 U/μL RNase inhibitor, and 0.9 μL of 50 U/μL MultiScribe Reverse Transcriptase (all purchased from Applied Biosystems) were mixed, and water was added to make up the total volume to 35 μL. This solution was maintained at 25° C. for 10 minutes, at 48° C. for 30 minutes, and at 95° C. for 5 minutes, and reverse transcription was conducted to synthesize cDNA.
A solution in total volume of 20 μL containing 10 μL of TaqMan Universal PCR Master Mix, 0.4 μL of 10 μM TaqMan MGB Probe (sequence 5′FAM-caccgaaggacaatccca-MGB-3′: Applied Biosystems), 0.1 μL of 50 μM Forward primer (sequence ggaagccgccagattcct) for detecting meltrin α, 0.1 μL of 50 μM Reverse primer (sequence […]) for detecting meltrin α (all purchased from Sigma-Genosys), 5 μL of the cDNA solution of (3), and 4.4 μL of water was prepared, and after maintaining the solution at 50° C. for 2 minutes and at 95° C. for 10 minutes, PCR was conducted by repeating 40 cycles of 95° C. for 15 seconds and 60° C. for 1 minute in ABI Prism 7000.
The amount of the human meltrin α RNA was measured by conducting real time PCR by using the plasmid containing the cDNA coding for the human meltrin α for the template to generate the standard curve, and calculating RNA copy number of the meltrin α in each sample. The level of expression of GAPDH was also determined by using a primer and probe set for real time PCR of human GAPDH (Pre-Developed TaqMan Assay Reagents Human GAPDH (20×) (Cat# 4310884E, Applied Biosystems).
The results of the real time PCR of the meltrin α was corrected by the level of expression of the GAPDH to calculate the suppression rate. […]

Substance | suppression rate of expression, 50 nM
H150 + 10: atctgggcacttggtgtgga (dA*dT*dC*dT*dG*dG*dG*dC*dA*dC*dT*dT*dG*dG*dT*dG*dT*dG*dG*dA; antisense) | ++ (“++” when the suppression rate was at least 50%)
H118: ggaggtgcccagtgggcctc (GGAGGTGCCCAGTGGGCCTC; antisense; DNA, all phosphorothioate, methylation of C not given here) | + (“+” when the suppression rate was at least 30%)
H219: ttcaaggggatgctgcccaa (dT*dT*dC*dA*dA*dG*dG*dG*dG*dA*dT*dG*dC*dT*dG*dC*dC*dC*dA*dA; antisense) | + (“+” when the suppression rate was at least 30%)
H139 + 13: aggtgcacgtggggcccggt (AGGTGCACGTGGGGCCCGGT; antisense; DNA, all phosphorothioate, methylation of C not given here) | + (“+” when the suppression rate was at least 30%)
H144 + 10: gatctgcaggcagaggcttc (GATCTGCAGGCAGAGGCTTC; antisense; DNA, all phosphorothioate, methylation of C not given here) | +++ (“+++” when the suppression rate was at least 70%)
H144: cagaggcttctgaggggggt (CAGAGGCTTCTGAGGGGGGT; antisense; DNA, all phosphorothioate, methylation of C not given here) | + (“+” when the suppression rate was at least 30%)
H132 + 18: tgggtaggaatctggcggct (TGGGTAGGAATCTGGCGGCT; antisense; DNA, all phosphorothioate, methylation of C not given here) | + (“+” when the suppression rate was at least 30%)
H144 + 12: aggatctgcaggcagaggct (AGGATCTGCAGGCAGAGGCT; antisense; DNA, all phosphorothioate, methylation of C not given here) | +++ (“+++” when the suppression rate was at least 70%)
H146: catgagtgagccgagttgtt (dC*dA*dT*dG*dA*dG*dT*dG*dA*dG*dC*dC*dG*dA*dG*dT*dT*dG*dT*dT; antisense) | + (“+” when the suppression rate was at least 30%)
H149 + 10: tattgtggagcaggtctgag (dT*dA*dT*dT*dG*dT*dG*dG*dA*dG*dC*dA*dG*dG*dT*dC*dT*dG*dA*dG; antisense) | + (“+” when the suppression rate was at least 30%)
H145 + 3: gttctggccagaggatctgc (dG*dT*dT*dC*dT*dG*dG*dC*dC*dA*dG*dA*dG*dG*dA*dT*dC*dT*dG*dC; antisense) | ++ (“++” when the suppression rate was at least 50%)
H144 + 13: gaggatctgcaggcagaggc (GAGGATCTGCAGGCAGAGGC; antisense; DNA, all phosphorothioate, methylation of C not given here) | ++ (“++” when the suppression rate was at least 50%)
H139 + 12: ggtgcacgtggggcccggtg (GGTGCACGTGGGGCCCGGTG; antisense; DNA, all phosphorothioate, methylation of C not given here) | + (“+” when the suppression rate was at least 30%)
H145 + 2: ttctggccagaggatctgca (dT*dT*dC*dT*dG*dG*dC*dC*dA*dG*dA*dG*dG*dA*dT*dC*dT*dG*dC*dA; antisense) | +++ (“+++” when the suppression rate was at least 70%)
H144 + 19: tggccagaggatctgcaggc (TGGCCAGAGGATCTGCAGGC; antisense; DNA, all phosphorothioate, methylation of C not given here) | +++ (“+++” when the suppression rate was at least 70%)

Same assay, conditions: 200 nM; RD cell; corrected by GAPDH

Substance | suppression rate of expression, 200 nM
H155: tccaactggagctgaaagat (dT*dC*dC*dA*dA*dC*dT*dG*dG*dA*dG*dC*dT*dG*dA*dA*dA*dG*dA*dT; antisense) | ++ (“++” when the suppression rate was at least 50%)
H094: atgccattgtagcagtagcc (dA*dT*dG*dC*dC*dA*dT*dT*dG*dT*dA*dG*dC*dA*dG*dT*dA*dG*dC*dC; antisense) | + (“+” when the suppression rate was at least 30%)
H118: ggaggtgcccagtgggcctc (GGAGGTGCCCAGTGGGCCTC; antisense; DNA, all phosphorothioate, methylation of C not given here) | ++ (“++” when the suppression rate was at least 50%)
H184: ggctacaccttaagattcct (dG*dG*dC*dT*dA*dC*dA*dC*dC*dT*dT*dA*dA*dG*dA*dT*dT*dC*dC*dT; antisense) | + (“+” when the suppression rate was at least 30%)
H217: ggaagttgataagcaagttg (dG*dG*dA*dA*dG*dT*dT*dG*dA*dT*dA*dA*dG*dC*dA*dA*dG*dT*dT*dG; antisense) | +++ (“+++” when the suppression rate was at least 70%)
H111: acactttgtgcctgcaagca (dA*dC*dA*dC*dT*dT*dT*dG*dT*dG*dC*dC*dT*dG*dC*dA*dA*dG*dC*dA; antisense) | + (“+” when the suppression rate was at least 30%)
H219: ttcaaggggatgctgcccaa (dT*dT*dC*dA*dA*dG*dG*dG*dG*dA*dT*dG*dC*dT*dG*dC*dC*dC*dA*dA; antisense) | +++ (“+++” when the suppression rate was at least 70%)
H160: gcaccatagcacagcacagc (dG*dC*dA*dC*dC*dA*dT*dA*dG*dC*dA*dC*dA*dG*dC*dA*dC*dA*dG*dC; antisense) | ++ (“++” when the suppression rate was at least 50%)
H096: tccccagagtgtgacacact (dT*dC*dC*dC*dC*dA*dG*dA*dG*dT*dG*dT*dG*dA*dC*dA*dC*dA*dC*dT; antisense) | + (“+” when the suppression rate was at least 30%)
H144: cagaggcttctgaggggggt (CAGAGGCTTCTGAGGGGGGT; antisense; DNA, all phosphorothioate, methylation of C not given here) | ++ (“++” when the suppression rate was at least 50%)
H072: gcagcctcctttctcaaccg (dG*dC*dA*dG*dC*dC*dT*dC*dC*dT*dT*dT*dC*dT*dC*dA*dA*dC*dC*dG; antisense) | + (“+” when the suppression rate was at least 30%)
H012: gccgagcggggccgggcgtc (GCCGAGCGGGGCCGGGCGTC; antisense; DNA, all phosphorothioate, methylation of C not given here) | +++ (“+++” when the suppression rate was at least 70%)
H104: gccggctggcacctccttga (dG*dC*dC*dG*dG*dC*dT*dG*dG*dC*dA*dC*dC*dT*dC*dC*dT*dT*dG*dA; antisense) | +++ (“+++” when the suppression rate was at least 70%)
H146: catgagtgagccgagttgtt (dC*dA*dT*dG*dA*dG*dT*dG*dA*dG*dC*dC*dG*dA*dG*dT*dT*dG*dT*dT; antisense) | ++ (“++” when the suppression rate was at least 50%)
H156: taaaagttggtacaaaaaac (dT*dA*dA*dA*dA*dG*dT*dT*dG*dG*dT*dA*dC*dA*dA*dA*dA*dA*dA*dC; antisense) | + (“+” when the suppression rate was at least 30%)
H044: tctttgcagcgaggtttggt (TCTTTGCAGCGAGGTTTGGT; antisense; DNA, all phosphorothioate, methylation of C not given here) | ++ (“++” when the suppression rate was at least 50%)
H085: gcgcacacagcgtccggctt (dG*dC*dG*dC*dA*dC*dA*dC*dA*dG*dC*dG*dT*dC*dC*dG*dG*dC*dT*dT; antisense) | + (“+” when the suppression rate was at least 30%)
